Values quoted from earlier work in patent US20240335440A1, “COMBINATION THERAPY COMPRISING A PKC INHIBITOR AND A C-MET INHIBITOR” (IDEAYA BIOSCIENCES, INC., priority 2021, published 2024).
Like-named read-outs stand apart in the source and are kept apart here. Marks after values point to notes of the source that are not given here.

Experiments:
[1] = test system: metastatic uveal melanoma (MUM); details: First-Line MUM (n = 31); oral capsules QD
[2] = test system: metastatic uveal melanoma (MUM); details: Second-Line + MUM (n = 127)

| Compound | Tolerability (Grade ≥3 Drug-related AE) [1] [%] | Tolerability (Grade ≥3 Drug-related AE) ([2]; HLA-A2-0201 patients, IV infusion weekly) [%] | % Pts with tumor shrinkage ([2]; independent review) [%^#] | Overall response rate by RECIST 1.1 ([2]; independent review) [%^#] | Progression free survival (mPFS) ([2]; independent review) [mo.^#] |
| --- | --- | --- | --- | --- | --- |
| COc1cc2nccc(Oc3ccc(NC(=O)C4(C(=O)Nc5ccc(F)cc5)CC4)cc3)c2cc1OC [Cabozantinib] | 51.6 | – | – | – | – |
| Tebentafusp: HLA-A2-0201 bi-specific AB, IV infusion (weekly), IMCgp100-102 study | – | 46.5 | 44 | 4.7 | 2.8 |
